Literature values, collected in patent publication US12350336B2, “Photo-activatable compound, its preparation and therapeutic use” (City University of Hong Kong, priority 2021, dated 2025).

Conditions: calibration standard value

Compound: CN(C)c1ccc2nc3ccc(=[N+](C)C)cc-3sc2c1 [MB, Methylene blue]
- ΦΔ (1O2 quantum yield) of calibration standard: 0.52
